Reference: US20090123389A1, “Methods for modulating Th17 cell development in the treatment and prevention of cellulite” (priority 2007, published 2009)

Legend:
primary T cells = type: cell-based
Method: The non-specific cytoxicity of HF in both normal and transformed T-cells at high doses was evaluated. Anti-CD3/anti-CD28 activated primary T cells were harvested 6 days after activation and cultured in the presence of IL-2 with or without HF (100 nM). As a positive control, some T cells were cultured without IL-2 to induce apoptosis (FIG. 3A). Jurkat T cells, a transformed T cell leukemia line, were cultured in complete medium with or without HF (100 nM) as indicated (FIG. 3B). Both primary and Jurkat T cells were cultured for 30 hours and programmed cell death, i.e. apoptosis, was determined by Annexin V staining and propidium iodide (PI) uptake and cells were analyzed by flow cytometry. The percent of apoptotic T cells at each time point was plotted and was defined as Annexin V^+ PI^−. […] In further experiments, titrating amounts of HF were added to primary T cells and apoptosis was determine as above at the indicated time points. At 100 nM HF, but not 30 nM or lower, generalized T-cell apoptosis was observed (FIG. 3C).

SV-MES mesangial cells = test: eIF2α phosphorylation in SV-MES mesangial cells (western blot); type: cell-based; settings: 20 nM HF, 2 hours
Method: SV-MES mesangial cells were stimulated for 2 hours with DMSO, 20 nM MAZ1310 or 20 nM HF. Whole cell lysates were analyzed for expression of phosphorylated or total eIF2α or GCN2 by western blotting.
Western blotting: Whole cell lysates were generated from T cells activated for the indicated times. For STAT3 and Smad2/3 western blots cells were harvested, washed in PBS and lysed in 50 mM Tris, pH 7.4, 0.1% SDS, 1% Triton-×100, 140 mM NaCl, 1 mM EDTA, 1 mM EGTA supplemented with protease inhibitors tablets (Roche—Germany), 1 mM NaF and 1 mM Na3VO4. For eIF2α and ATF4 western blots, cells were harvested as above and lysed in 50 mM Tris, pH 7.4, 2% SDS, 20% glycerol and 2 mM EDTA supplemented with protease and phosphatase inhibitors as above. All lysates were cleared via centrifugation and 15-30 μg of protein was resolved by SDS-PAGE. Protein was transferred to nitrocellulose membranes, blocked and blotted using specific antibodies. Antibodies used for western blot analysis were anti-phospho-Smad2, anti-STAT3 (pY705), anti-STAT3, anti-eIF2α^pS51, anti-eIF2α, anti-GCN2^pT898, anti-GCN2 (all from cell signaling technology, Danvers, Mass.). Anti-ATF4/CREB2 and anti-β-actin were purchased from Santa Cruz biotechnology (Santa Cruz, Calif.). […]

[1] = test system: Xenopus feeding stage tadpoles; test: Toxicity in Xenopus feeding stage tadpoles; settings: 400 nM HF, treatment for 7 days

## O=C(CC1NCCCC1O)Cn1cnc2cc(Br)c(Cl)cc2c1=O (racemic) [HF, 7-bromo-6-chloro-3-[3-(3-hydroxy-2-piperidinyl)-2-oxopropyl]-4(3H)-quinazolinone]
Primary T cells
  HF concentration at which generalized T-cell apoptosis was not observed: ≤ 30 nM
  HF concentration at which generalized T-cell apoptosis was observed: 100 nM
SV-MES mesangial cells
  eIF2α phosphorylation in cultured fibroblasts: increased eIF2α phosphorylation
[1]
  toxic effects in tadpoles: does not have detectable toxic effects
